Source: patent publication US7902195B2, “Pyridine [3,4-b] pyrazinones” (Pharmacia & Upjohn Company LLC, priority 2006, dated 2011)

Biological target: T1, PDE5 enzyme isolated from human platelets (Homo sapiens, UniProt O76074)
T1 construct: The PDE5 enzyme for use in the assay can be obtained from human platelets; from tissue; host or cells: human platelets
Assay: Alternative human platelet PDE5 enzyme inhibition scintillation proximity assay (Method 2)
Assay type: biochemical
Details: cGMP substrate 50 nM, 60 minutes at room temperature
Text: The IC50 of a test compound can be measured using an in vitro assay using PDE5 enzyme isolated from human platelets. The IC50 is the concentration of test compound required to inhibit the hydrolysis of cGMP to GMP by the PDE5 enzyme by 50% relative to the activity of uninhibited controls. The PDE5 enzyme for use in the assay can be obtained from human platelets by appropriate modification of the method of Thompson, W J et al.; Biochemistry 18(23), 5228-5237, 1979, as described by Ballard S A et al.; J. Urology 159(6), 2164-2171, 1998. The PDE5 enzyme so obtained can be used to catalyze the hydrolysis of [^3H]cGMP (Amersham Biosciences) to 5′ nucleotide [^3H]GMP. The [^3H]GMP binds to yttrium silicate SPA beads (Amersham Biosciences) and is detected by scintillation counting. More specifically, the effect of a test compound at different concentrations can be evaluated in the assay by contacting the compound with a fixed amount of PDE5 enzyme in the presence of substrate (cGMP […] in a 3:1 ratio unlabelled to [^3H]-labeled). Scintillation counting can be used as described above to determine relative PDE5 enzyme activity. The inhibition of PDE5 enzyme activity is then calculated relative to total PDE5 enzyme activity of uninhibited controls.
Method 2: Alternative Human Platelet PDE5 Enzyme Inhibition Scintillation Proximity Assay
PDE5 IC50 Assay: 96-Well Microtiter Plate Format
Buffer A: 20 mM Tris-HCl, 5 mM MgCl2, pH 7.4
Buffer B: 2 mg/ml BSA in Buffer A (enzyme buffer)
cGMP substrate: Final concentration of 50 nM in assay
The amount of ^3H-labeled substrate added depends upon the specific activity of [^3H]cGMP, and it is diluted in Buffer A.
PDE enzyme: Prepared in Buffer B. The dilution factor is determined by enzyme activity.
SPA beads: 4 mg/ml suspension prepared in dH2O.
Stocks of standard and test compound are prepared at 2 mM in 100% DMSO. The test compound is serially diluted in a dilution plate using an 8-point ⅕ log dilution format such that the starting concentration in the assay is 2 μM for an initial IC50 screen. 27 μl of Buffer A are added to the wells of the assay plates. From the dilution plate, 3 μl of diluted compound is delivered in duplicate or 3 μl of 100% DMSO (for positive and negative controls) are added. 30 μl of enzyme are added. For the negative control wells, Buffer B is substituted in place of the enzyme. 30 μl of labeled substrate are added to all wells.
After incubating for 60 minutes at room temperature, the reaction is stopped with the addition of 30 μl of the yttrium silicate beads. These beads are dense and require constant agitation while being added to the plate. The plates are sealed and shaken on a plate shaker for fifteen minutes to allow the beads to bind the GMP product.
After allowing the beads to settle for 30 minutes, plates are read on a NXT TopCount scintillation counter and the data are analyzed as follows. Percent inhibition values are calculated using the means of the 0% and 100% controls on each plate. The estimates of the 4-parameters of the logistic, sigmoid dose-response model are then calculated using the well-level percent inhibition value for the compound. The formula for the four-parameter logistic model may be expressed as Y=((a−d)/(1+(X/c)^b))+d, where Y is the response, X is the concentration, a is the lower asymptote (minimum response), d is the upper asymptote (maximum response), c is the model IC50 (in the same units as X), and b is the slope (as described in De Lean, A., P. J. Munson, and D. Rodbard (“Simultaneous analysis of families of sigmoidal curves: application to bioassay, radioligand assay, and physiological dose-response curves.” Am. J. Physiol. 235(2): E97-E102, 1978). These estimates are used to calculate the concentration that corresponds to 50% inhibition.
Compounds were tested in accordance with Method 2 above yielding the IC50 values described in Table C.

IC50	Compound
47.1 nM	CCCOCCn1c(=O)c(N2CCN(CCO)CC2)nc2cnc(-c3cccc(F)c3F)cc21 [Example 26, 7-(2,3-difluorophenyl)-3-(4-(2-hydroxyethyl)piperazin-1-yl)-1-(2-propoxyethyl)pyrido[3,4-b]pyrazin-2(1H)-one]
9.31 nM	CCCOCCn1c(=O)c(N2CCN(CCO)CC2)nc2cnc(-c3ccc(C)cc3)cc21 [Example 27, 3-(4-(2-hydroxyethyl)piperazin-1-yl)-1-(2-propoxyethyl)-7-p-tolylpyrido[3,4-b]pyrazin-2(1H)-one]
12.6 nM	CCCOCCn1c(=O)c(N2CCN(CCO)CC2)nc2cnc(-c3cc(Cl)ccc3F)cc21 [Example 34, 7-(5-chloro-2-fluorophenyl)-3-(4-(2-hydroxyethyl)piperazin-1-yl)-1-(2-propoxyethyl)pyrido[3,4-b]pyrazin-2(1H)-one]
423 nM	CCCOCCn1c(=O)c(N2CCN(CCO)CC2)nc2cnc(-c3cccc(C)c3)cc21 [Example 36, 3-(4-(2-hydroxyethyl)piperazin-1-yl)-1-(2-propoxyethyl)-7-m-tolylpyrido[3,4-b]pyrazin-2(1H)-one]
18.1 nM	CCCOCCn1c(=O)c(N2CCN(CCO)CC2)nc2cnc(-c3ccccc3O)cc21 [Example 37, 3-(4-(2-hydroxyethyl)piperazin-1-yl)-7-(2-hydroxyphenyl)-1-(2-propoxyethyl)pyrido[3,4-b]pyrazin-2(1H)-one]
42.2 nM	CCCOCCn1c(=O)c(N2CCN(CCO)CC2)nc2cnc(-c3ccccc3F)cc21 [Example 38, 7-(2-fluorophenyl)-3-(4-(2-hydroxyethyl)piperazin-1-yl)-1-(2-propoxyethyl)pyrido[3,4-b]pyrazin-2(1H)-one]

Further lines, the compound ahead of its results:

Compound	IC50
CCCOCCn1c(=O)c(N2CCN(CCO)CC2)nc2cnc(-c3ccc(C(C)=O)s3)cc21 [Example 28, 7-(5-acetylthiophen-2-yl)-3-(4-(2-hydroxyethyl)piperazin-1-yl)-1-(2-propoxyethyl)pyrido[3,4-b]pyrazin-2(1H)-one]	43.1 nM
CCCOCCn1c(=O)c(N2CCN(CCO)CC2)nc2cnc(-c3cccc(OC)c3)cc21 [Example 29, 3-(4-(2-hydroxyethyl)piperazin-1-yl)-7-(3-methoxyphenyl)-1-(2-propoxyethyl)pyrido[3,4-b]pyrazin-2(1H)-one]	3.07 nM
CCCOCCn1c(=O)c(N2CCN(CCO)CC2)nc2cnc(-c3cccc(CO)c3)cc21 [Example 30, 3-(4-(2-hydroxyethyl)piperazin-1-yl)-7-(3-(hydroxymethyl)phenyl)-1-(2-propoxyethyl)pyrido[3,4-b]pyrazin-2(1H)-one]	311 nM
CCCOCCn1c(=O)c(N2CCN(CCO)CC2)nc2cnc(-c3cccnc3)cc21 [Example 31, 3-(4-(2-hydroxyethyl)piperazin-1-yl)-1-(2-propoxyethyl)-7-(pyridin-3-yl)pyrido[3,4-b]pyrazin-2(1H)-one]	45.8 nM
CCCOCCn1c(=O)c(N2CCN(CCO)CC2)nc2cnc(-c3cccc(OCC)c3)cc21 [Example 32, 7-(3-ethoxyphenyl)-3-(4-(2-hydroxyethyl)piperazin-1-yl)-1-(2-propoxyethyl)pyrido[3,4-b]pyrazin-2(1H)-one]	158 nM
CCCOCCn1c(=O)c(N2CCN(CCO)CC2)nc2cnc(-c3ccc(OC)c(F)c3)cc21 [Example 33, 7-(3-fluoro-4-methoxyphenyl)-3-(4-(2-hydroxyethyl)piperazin-1-yl)-1-(2-propoxyethyl)pyrido[3,4-b]pyrazin-2(1H)-one]	13.6 nM
CCCOCCn1c(=O)c(N2CCN(CCO)CC2)nc2cnc(-c3ccc(OC)c(C)c3)cc21 [Example 35, 3-(4-(2-hydroxyethyl)piperazin-1-yl)-7-(4-methoxy-3-methylphenyl)-1-(2-propoxyethyl)pyrido[3,4-b]pyrazin-2(1H)-one]	1.69 nM
CCCOCCn1c(=O)c(N2CCN(CC)CC2)nc2cnc(-c3ccc(OC)nc3)cc21 [Example 39, 3-(4-ethylpiperazin-1-yl)-7-(6-methoxypyridin-3-yl)-1-(2-propoxyethyl)pyrido[3,4-b]pyrazin-2(1H)-one]	0.217 nM
